The target of one assay is human NOP receptor (Homo sapiens, UniProt P41146). Put plainly: Calcium mobilization in CHO cells expressing human NOP receptor and Gαqi5. Format: cell-based. The settings on record: inactive = inactive up to 1 μM. As to the method: (§1) Cells were maintained in culture medium consisting of Dulbecco's MEM/HAM'S F-12 (50/50) supplemented with 10% foetal calf serum, penicillin (100 IU/ml), streptomycin (100 μg/ml), fungizone (2.5 μg/ml), geneticin (G418; 200 μg/ml) and hygromycin B (200 mg/ml). Cell cultures were kept at 37° C. in 5% CO2 humidified air. In all cases experimental cultures were free from selection agents (hygromycin B, G418). When confluence was reached (3-4 days), cells were sub-cultured as required using trypsin EDTA and used for experimentation. Cells were seeded at a density of 50,000 cells/well into 96-well black, clear-bottom plates. After 24 hours incubation the cells were loaded with medium supplemented with 2.5 mM probenecid, 3 μM of the calcium sensitive fluorescent dye Fluo-4 AM and 0.01% pluronic acid, for 30 min at 37° C. Afterwards the loading solution was aspirated and 100 μl/well of assay buffer: Hank's Balanced Salt Solution (HBSS) supplemented with 20 mM HEPES, 2.5 mM probenecid and 500 μM Brilliant Black (Aldrich) was added. […] On-line additions were carried out in a volume of 50 μl/well. To facilitate drug diffusion into the wells in antagonist type experiments, the present studies were performed at 37° C. and three cycles of mixing (25 μl from each well moved up and down 3 times) were performed immediately after antagonist injection to the wells.
human NOP receptor, sequence (P41146 whole entry): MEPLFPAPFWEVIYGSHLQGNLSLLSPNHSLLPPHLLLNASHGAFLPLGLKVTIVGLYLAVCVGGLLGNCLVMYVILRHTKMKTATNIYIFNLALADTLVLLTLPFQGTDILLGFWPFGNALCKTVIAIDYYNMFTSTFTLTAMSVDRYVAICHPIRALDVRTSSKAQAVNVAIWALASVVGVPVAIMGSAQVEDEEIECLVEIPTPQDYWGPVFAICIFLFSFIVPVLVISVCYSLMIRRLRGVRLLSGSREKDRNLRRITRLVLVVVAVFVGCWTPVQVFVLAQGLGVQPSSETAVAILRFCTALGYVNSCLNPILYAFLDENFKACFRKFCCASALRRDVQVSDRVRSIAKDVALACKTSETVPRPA
(§2) Four mice were monitored in parallel. […] Animals locomotion was recorded for 60 min.
In general terms: Calcium assays in cells follow changes in intracellular calcium, usually with a dye or a luminescent sensor.

The next assay addresses T1, DOP receptor (Homo sapiens, UniProt P41143).
T1 construct: expressed in transfected cells; host or cells: CHO cells co-expressing GαqG66Di5
Briefly: Calcium mobilization in CHO cells expressing DOP receptor and GαqG66Di5. Format: cell-based. As to the method: as §1, with “Cell” for “Cells were maintained in culture medium consisting of Dulbecco's MEM/HAM'S F-12 (50/50) supplemented with 10% foetal calf serum, penicillin (100 IU/ml), streptomycin (100 μg/ml), fungizone (2.5 μg/ml), geneticin (G418; 200 μg/ml) and hygromycin B (200 mg/ml). Cell”
as §2

For another assay, the target named is KOP receptor (Homo sapiens, UniProt P41145). Put plainly: Calcium mobilization in CHO cells expressing KOP receptor and Gαqi5. Format: cell-based. Particulars: inactive = inactive up to 1 μM. As to the method: as §1, with “To facilitate drug diffusion into the wells in antagonist type experiments, the present studies were performed at 37° C. and three cycles of mixing (25 μl from each well moved up and down 3 times) were performed immediately after antagonist injection to the wells.” left out
KOP receptor, sequence (P41145 whole entry, the tested form may be a part): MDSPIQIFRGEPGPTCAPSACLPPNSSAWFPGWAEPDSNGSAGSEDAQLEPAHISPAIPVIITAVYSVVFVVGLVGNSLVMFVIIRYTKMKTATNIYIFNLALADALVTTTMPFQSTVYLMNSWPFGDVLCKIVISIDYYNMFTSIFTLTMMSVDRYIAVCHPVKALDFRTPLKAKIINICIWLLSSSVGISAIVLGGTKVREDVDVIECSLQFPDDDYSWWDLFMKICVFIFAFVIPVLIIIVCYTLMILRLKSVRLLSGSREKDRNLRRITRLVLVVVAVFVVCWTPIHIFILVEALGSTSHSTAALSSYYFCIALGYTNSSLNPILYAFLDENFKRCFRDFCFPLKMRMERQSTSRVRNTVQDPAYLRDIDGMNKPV
as §2

Assay [1] deals with electrically stimulated mouse vas deferens. Briefly: Electrically stimulated mouse vas deferens. As to the method:
The bath temperature was set at 33° C. Tissues were continuously stimulated through two platinum ring electrodes with supramaximal rectangular pulses of 1 ms duration and 0.05 Hz frequency. A resting tension of 0.3 g was applied to the vas deferens.
assuming a slope value equal to unity, where CR indicate the ratio between agonist potency in the presence and absence of antagonist.

Assay [2] shares this test system. The settings on record: versus N/OFQ; Spagnolo et al. 2007; cited from earlier work.
For another assay, the target named is MOP receptor (Homo sapiens, UniProt P35372). Put plainly: Calcium mobilization in CHO cells expressing MOP receptor and Gαqi5. The assay is classed as cell-based. The settings on record: inactive = inactive up to 1 μM. As to the method:
as §1, with “Cell” for “Cells were maintained in culture medium consisting of Dulbecco's MEM/HAM'S F-12 (50/50) supplemented with 10% foetal calf serum, penicillin (100 IU/ml), streptomycin (100 μg/ml), fungizone (2.5 μg/ml), geneticin (G418; 200 μg/ml) and hygromycin B (200 mg/ml). Cell”
as §2

Assay [3] deals with vas deferens tissues taken from NOP(+/+) mice. Briefly: Electrically stimulated vas deferens from NOP(+/+) mice. Details: species or system mouse.
Description: The bath temperature was set at 33° C. Tissues were continuously stimulated through two platinum ring electrodes with supramaximal rectangular pulses of 1 ms duration and 0.05 Hz frequency. A resting tension of 0.3 g was applied to the vas deferens. […] Following an equilibration period of 60 min, the contractions induced by electrical field stimulation were stable.
In assay [4] the test system is vas deferens tissues taken from NOP(−/−) mice. Briefly: Electrically stimulated vas deferens from NOP(−/−) mice. Further details: species or system mouse. As to the method:
The mouse vas deferens were prepared as previously described (Calto et al., Eur J Pharmacol. 311, (1996) R3-5). Tissues were suspended in 5 ml organ baths containing heated Krebs solution (composition in mM: NaCl 118.5, KCl 4.7, KH2PO4 1.2, NaHCO3 25, glucose 10 and CaCl2 2.5) oxygenated with 95% O2 and 5% CO2. The bath temperature was set at 33° C. Tissues were continuously stimulated through two platinum ring electrodes with supramaximal rectangular pulses of 1 ms duration and 0.05 Hz frequency. A resting tension of 0.3 g was applied to the vas deferens. The electrically evoked contractions (twitches) were measured isotonically with a strain gauge transducer (Basile 7006, UgoBasile s.r.l., Varese, Italy) and recorded with the PC based acquisition system Power Lab (ADInstrument, USA). Following an equilibration period of 60 min, the contractions induced by electrical field stimulation were stable.

As a reminder, the pEC50 is the negative decadic logarithm of the EC50, by convention in mol/L.

T1 sequence (P41143 whole entry): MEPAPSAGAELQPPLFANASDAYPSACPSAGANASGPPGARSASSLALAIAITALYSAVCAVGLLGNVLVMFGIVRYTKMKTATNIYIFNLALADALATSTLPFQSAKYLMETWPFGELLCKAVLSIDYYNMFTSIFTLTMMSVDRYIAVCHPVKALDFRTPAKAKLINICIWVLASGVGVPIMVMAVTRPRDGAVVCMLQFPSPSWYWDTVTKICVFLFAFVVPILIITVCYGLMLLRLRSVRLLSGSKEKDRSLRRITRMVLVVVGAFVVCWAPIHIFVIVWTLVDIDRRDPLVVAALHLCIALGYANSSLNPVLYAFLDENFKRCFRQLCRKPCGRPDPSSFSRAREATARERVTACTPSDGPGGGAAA
MOP receptor, sequence (P35372 whole entry): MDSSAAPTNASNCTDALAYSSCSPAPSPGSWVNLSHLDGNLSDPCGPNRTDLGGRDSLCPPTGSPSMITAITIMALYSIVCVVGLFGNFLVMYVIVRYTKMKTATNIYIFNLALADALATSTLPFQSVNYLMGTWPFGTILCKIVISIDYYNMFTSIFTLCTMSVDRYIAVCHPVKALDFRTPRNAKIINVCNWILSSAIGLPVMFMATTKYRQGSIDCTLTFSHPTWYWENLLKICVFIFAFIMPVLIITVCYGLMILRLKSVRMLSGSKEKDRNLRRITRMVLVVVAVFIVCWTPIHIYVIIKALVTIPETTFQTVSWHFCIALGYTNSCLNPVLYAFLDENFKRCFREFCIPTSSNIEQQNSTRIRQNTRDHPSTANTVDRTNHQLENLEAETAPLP

Take `C[C@@H](NC(=O)[C@@H](N)Cc1ccc(O)cc1)C(=O)N[C@@H](Cc1ccccc1)C(=O)NCC(=O)N[C@@H](Cc1ccc(O)cc1)C(=O)N1CCC[C@H]1C(=O)N[C@@H](CO)C(N)=O` [Dermorphin]: the “pEC50 (CL95%)” value at human NOP receptor is “inactive”. Besides, the pEC50 result at DOP receptor (inactive = inactive up to 1 μM) and at KOP receptor was “inactive” in each case.
In the case of `Cc1cccc2c1CC[C@H](CN1CCC(c3c(Cl)cccc3Cl)CC1)C[C@@H]2O` [SB-612111, reference compound], the “effect per se on control twitches” value in assay [1] (100 nM) is “did not modify per se the control twitches”. Also, the Kb in assay [1] (Mus musculus, read-out: SB-612111 pKB (CL95%), SB-612111 100 nM versus N/OFQ (converted)) is 3.31 nM. Also, the “SB-612111 pKB, literature” value in assay [2] was 8.50.
In the case of DPDPE, the “pEC50 (CL95%)” value on human NOP receptor is “inactive”. Besides, the pEC50 result on MOP receptor is “inactive”; at KOP receptor, “inactive”; in assay [3] (CL95% in brackets), 8.45 (8.19-8.71); in assay [4] (CL95% in brackets), 8.42 (8.16-8.68). On DOP receptor, the maximal effects is reported as 86±14%. Moreover, the Emax was 91 ± 3% in assay [3] (maximal inhibition of electrically induced contractions) and 94 ± 3 in assay [4].
Dynorphin A: the “pEC50 (CL95%)” value on human NOP receptor was “inactive”.
